# Experimental data taken from ChEMBL document CHEMBL5055619, “Tetrahydrofuran-Based Transient Receptor Potential Ankyrin 1 (TRPA1) Antagonists: Ligand-Based Discovery, Activity in a Rodent Asthma Model, and Mechanism-of-Action via Cryogenic Electron Microscopy” (J Med Chem, 2021).
# pEC50, pIC50: −log10 of the molar value.
# Key:
# [1] = Antagonist activity at human TRPA1 expressed in CHO cells assessed as cinnamaldehyde-induced calcium flux measured after 90 mins by FLIPR assay; type: cell-based; details: 1.5 h
# [2] = Metabolic stability in human liver microsomes assessed as clearance by LC/MS-MS analysis; type: ADME, Microsome
# [3] = Metabolic stability in rat liver microsomes assessed as clearance by LC/MS-MS analysis; type: ADME, Microsome
# [4] = Lipophilicity, logD of compound; type: physicochemical; details: octanol/water
# [5] = Kinetic solubility of the compound; type: physicochemical; details: for solubility kinetic: read-out: Kinetic_solubility
# [6] = Volume of distribution at steady stare in rat at 1 mg/kg; type: ADME, organism-based; details: in vivo, read-out: Vdss
# Rattus norvegicus = species: Rattus norvegicus; test: Antinociceptive activity against AITC-induced rat pain model assessed as nocifensive behaviour by measuring unbound concentration; type: functional, organism-based
# [7] = biological target: Transient receptor potential cation channel subfamily A member 1 (Rattus norvegicus) (UniProt Q6RI86); test: In vivo antagonist activity at TRPA1 in AITC-induced rat pain model assessed as nocifensive behaviour at 44.77 ratio of free plasma concentration to IC50 for rat […]; type: functional, organism-based; details: concentration not given here
# [8] = Half life in rat at 1 mg/kg; type: ADME, organism-based; details: in vivo
# [9] = Unbound Volume of distribution at steady state in rat at 1 mg/kg; type: ADME, organism-based; details: in vivo
# [10] = Antagonist activity at rat TRPA1 expressed in CHO cells assessed as cinnamaldehyde-induced calcium flux measured after 90 mins by FLIPR assay; type: cell-based; details: 1.5 h
# [11] = Clearance in rat at 1 mg/kg; type: ADME, organism-based; details: in vivo
# [12] = Metabolic stability in rat hepatocytes assessed as clearance; type: ADME, cell-based, Hepatocyte
# [13] = Protein binding in human plasma; type: ADME, cell-free; details: read-out: PPB (converted)
# [14] = biological target: Transient receptor potential cation channel subfamily A member 1 (Rattus norvegicus) (UniProt Q6RI86); test: In vivo antagonist activity at TRPA1 in AITC-induced rat pain model assessed as nocifensive behaviour at 21.57 ratio of free plasma concentration to IC50 for rat […]; type: functional, organism-based; details: concentration not given here
# [15] = Apparent permeability across apical to basolateral side in MDCK cells; type: ADME, cell-based, Canis lupus familiaris; details: dog, read-out: permeability
# [16] = biological target: Transient receptor potential cation channel subfamily A member 1 (Rattus norvegicus) (UniProt Q6RI86); test: In vivo antagonist activity at TRPA1 in AITC-induced rat pain model assessed as nocifensive behaviour at 0.76 ratio of free plasma concentration to IC50 for rat […]; type: functional, organism-based; details: concentration not given here
# [17] = Oral bioavailability in rat at 1 mg/kg; type: ADME, organism-based; details: in vivo
# [18] = biological target: Transient receptor potential cation channel subfamily A member 1 (Rattus norvegicus) (UniProt Q6RI86); test: In vivo antagonist activity at TRPA1 in AITC-induced rat pain model assessed as nocifensive behaviour at 8 ratio of free plasma concentration to IC50 for rat […]; type: functional, organism-based
# [19] = Stability in human plasma assessed as compound remaining after 4 hrs; type: ADME, cell-free; details: read-out: Stability
# [20] = Stability in rat plasma assessed as compound remaining after 4 hrs; type: ADME, cell-free; details: read-out: Stability
# [21] = biological target: Transient receptor potential cation channel subfamily A member 1 (Rattus norvegicus) (UniProt Q6RI86); test: In vivo antagonist activity at TRPA1 in AITC-induced rat pain model assessed as nocifensive behaviour at 0.53 ratio of free plasma concentration to IC50 for rat […]; type: functional, organism-based; details: concentration not given here
# [22] = Protein binding in rat plasma; type: ADME, cell-free; details: read-out: PPB (converted)
# [23] = biological target: Transient receptor potential cation channel subfamily A member 1 (Rattus norvegicus) (UniProt Q6RI86); test: In vivo antagonist activity at TRPA1 in AITC-induced rat pain model assessed as nocifensive behaviour at 3.17 ratio of free plasma concentration to IC50 for rat […]; type: functional, organism-based; details: concentration not given here
# [24] = biological target: Transient receptor potential cation channel subfamily A member 1 (Rattus norvegicus) (UniProt Q6RI86); test: In vivo antagonist activity at TRPA1 in AITC-induced rat pain model assessed as nocifensive behaviour at 0.17 ratio of free plasma concentration to IC50 for rat […]; type: functional, organism-based; details: concentration not given here
# [25] = biological target: Transient receptor potential cation channel subfamily A member 1 (Rattus norvegicus) (UniProt Q6RI86); test: In vivo antagonist activity at TRPA1 in AITC-induced rat pain model assessed as nocifensive behaviour at 0.10 ratio of free plasma concentration to IC50 for rat […]; type: functional, organism-based; details: concentration not given here
# [26] = biological target: Transient receptor potential cation channel subfamily A member 1 (Rattus norvegicus) (UniProt Q6RI86); test: In vivo antagonist activity at TRPA1 in AITC-induced rat pain model assessed as nocifensive behaviour at 1.21 ratio of free plasma concentration to IC50 for rat […]; type: functional, organism-based; details: concentration not given here
# [27] = biological target: Transient receptor potential cation channel subfamily A member 1 (Rattus norvegicus) (UniProt Q6RI86); test: In vivo antagonist activity at TRPA1 in AITC-induced rat pain model assessed as nocifensive behaviour at 4.45 ratio of free plasma concentration to IC50 for rat […]; type: functional, organism-based; details: concentration not given here
# [28] = biological target: Transient receptor potential cation channel subfamily A member 1 (Rattus norvegicus) (UniProt Q6RI86); test: In vivo antagonist activity at TRPA1 in AITC-induced rat pain model assessed as nocifensive behaviour at 0.36 ratio of free plasma concentration to IC50 for rat […]; type: functional, organism-based; details: concentration not given here
# [29] = biological target: Transient receptor potential cation channel subfamily A member 1 (Rattus norvegicus) (UniProt Q6RI86); test: In vivo antagonist activity at TRPA1 in AITC-induced rat pain model assessed as nocifensive behaviour at 2.97 ratio of free plasma concentration to IC50 for rat […]; type: functional, organism-based; details: concentration not given here
# [30] = biological target: Transient receptor potential cation channel subfamily A member 1 (Rattus norvegicus) (UniProt Q6RI86); test: In vivo antagonist activity at TRPA1 in AITC-induced rat pain model assessed as nocifensive behaviour at 0.86 ratio of free plasma concentration to IC50 for rat […]; type: functional, organism-based; details: concentration not given here
# [31] = biological target: Transient receptor potential cation channel subfamily A member 1 (Rattus norvegicus) (UniProt Q6RI86); test: In vivo antagonist activity at TRPA1 in AITC-induced rat pain model assessed as nocifensive behaviour at 43.69 ratio of free plasma concentration to IC50 for rat […]; type: functional, organism-based; details: concentration not given here
# [32] = biological target: Transient receptor potential cation channel subfamily A member 1 (Rattus norvegicus) (UniProt Q6RI86); test: In vivo antagonist activity at TRPA1 in AITC-induced rat pain model assessed as nocifensive behaviour at 2.94 ratio of free plasma concentration to IC50 for rat […]; type: functional, organism-based; details: concentration not given here
# [33] = biological target: Transient receptor potential cation channel subfamily A member 1 (Rattus norvegicus) (UniProt Q6RI86); test: In vivo antagonist activity at TRPA1 in AITC-induced rat pain model assessed as nocifensive behaviour at 12.67 ratio of free plasma concentration to IC50 for rat […]; type: functional, organism-based; details: concentration not given here
# Chain of Transient receptor potential cation channel subfamily A member 1 (Rattus norvegicus) (Q6RI86 whole entry): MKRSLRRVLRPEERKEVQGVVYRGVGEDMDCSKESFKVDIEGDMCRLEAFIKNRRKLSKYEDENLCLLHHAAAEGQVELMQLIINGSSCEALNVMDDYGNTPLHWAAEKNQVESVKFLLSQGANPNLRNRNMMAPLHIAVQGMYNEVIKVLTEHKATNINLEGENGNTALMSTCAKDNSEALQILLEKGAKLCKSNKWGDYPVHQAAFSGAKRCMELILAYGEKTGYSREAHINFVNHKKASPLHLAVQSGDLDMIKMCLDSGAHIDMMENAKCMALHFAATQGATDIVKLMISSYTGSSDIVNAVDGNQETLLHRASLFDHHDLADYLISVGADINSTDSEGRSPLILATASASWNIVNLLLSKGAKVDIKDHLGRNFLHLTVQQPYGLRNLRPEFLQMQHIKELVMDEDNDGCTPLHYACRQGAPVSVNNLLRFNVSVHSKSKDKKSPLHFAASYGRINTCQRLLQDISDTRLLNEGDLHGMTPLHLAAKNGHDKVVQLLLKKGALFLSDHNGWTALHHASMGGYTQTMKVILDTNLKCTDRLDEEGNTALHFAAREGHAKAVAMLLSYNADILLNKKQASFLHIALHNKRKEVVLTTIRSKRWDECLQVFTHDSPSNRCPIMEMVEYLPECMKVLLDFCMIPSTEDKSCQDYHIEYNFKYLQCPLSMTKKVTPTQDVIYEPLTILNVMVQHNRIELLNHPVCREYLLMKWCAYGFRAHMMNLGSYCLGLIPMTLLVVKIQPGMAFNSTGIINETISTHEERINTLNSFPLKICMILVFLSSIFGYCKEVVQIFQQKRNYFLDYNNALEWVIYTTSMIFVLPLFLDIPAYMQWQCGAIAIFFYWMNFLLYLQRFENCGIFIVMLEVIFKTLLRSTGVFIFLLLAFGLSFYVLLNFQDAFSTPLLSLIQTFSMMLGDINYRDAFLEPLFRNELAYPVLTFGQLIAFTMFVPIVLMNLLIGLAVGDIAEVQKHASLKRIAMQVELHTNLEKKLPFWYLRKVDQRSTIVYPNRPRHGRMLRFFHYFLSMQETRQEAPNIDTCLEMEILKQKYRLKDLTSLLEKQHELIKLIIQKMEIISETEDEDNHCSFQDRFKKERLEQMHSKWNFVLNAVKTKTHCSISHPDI
pIC50 [1],CLhep predicted [2],CLhep predicted [3],logD [4],solubility kinetic [5],SMILES,further results
7.27,14 mL/min/kg,27 mL/min/kg,2.7,–,O=c1c2cccnc2cnn1Cc1nc([C@H]2[C@@H]3CN(c4cc(Cl)ccn4)C[C@@H]32)no1,–
8.02,12 mL/min/kg,36 mL/min/kg,2.4,–,Cn1cnc2ncn(Cc3nn([C@@H]4CC[C@@H](c5ccc(Cl)cc5)C4)c(=O)o3)c(=O)c21,–
8.72,–,–,2.7,1.4 µM,Cn1cnc2ncn(Cc3nc([C@H]4[C@@H]5C=C(c6ccccc6)C[C@@H]54)no3)c(=O)c21,–
7.49,–,–,2.6,< 1 µM,Cn1cnc2ncn(Cc3nc([C@@H]4[C@@H]5Cc6c(Cl)cccc6[C@@H]54)no3)c(=O)c21,–
8.12,4.3 mL/min/kg,9 mL/min/kg,–,–,Cn1cnc2ncn(Cc3nc([C@@H]4CO[C@@H](c5ccc(F)cc5)C4)no3)c(=O)c21,–
7.70,5.6 mL/min/kg,28 mL/min/kg,1.2,120 µM,Cn1cnc2ncn(Cc3nn(C[C@H](F)c4ccc(Cl)cc4)c(=O)o3)c(=O)c21,Vd [6]: 1.3 L/kg; pEC50 (Rattus norvegicus): 6.41; inhibition [7]: 100%; half-life [8]: 1.4 h; Vduss [9]: 3.14 L/kg; pIC50 [10]: 7.74; clearance [11]: 17 mL/min/kg; CLhep predicted [12]: 24 mL/min/kg; fraction unbound [13]: 0.334; inhibition [14]: 37%; Papp A→B [15]: 9 ×10⁻⁶ cm/s; inhibition [16]: 20%; bioavailability [17]: 53%; inhibition [18]: 20%
7.30,14 mL/min/kg,27 mL/min/kg,2.6,–,Cc1ncn2ncn(Cc3nc([C@H]4[C@@H]5CN(c6cccc(Cl)c6)C[C@@H]54)no3)c(=O)c12,–
8.70,9.5 mL/min/kg,23 mL/min/kg,1.6,–,Cn1cnc2ncn(Cc3nn([C@@H]4CO[C@@H](c5ccc(Cl)cc5)C4)c(=O)o3)c(=O)c21,remaining at 4 h [19]: 76%; remaining at 4 h [20]: 61%
< 4.70,4.3 mL/min/kg,19 mL/min/kg,2.6,–,Cn1cnc2ncn(Cc3nn([C@H]4CC[C@H](c5ccc(Cl)cc5)CC4)c(=O)o3)c(=O)c21,–
6.39,8 mL/min/kg,24 mL/min/kg,1.8,–,Cn1cnc2ncn(Cc3nn([C@@H]4CC[C@@H](Oc5cccc(F)c5)C4)c(=O)o3)c(=O)c21,–
8.09,15 mL/min/kg,32 mL/min/kg,3,13 µM,Cc1cnn2ncn(Cc3nc([C@H]4[C@@H]5CN(c6cccc(Cl)c6)C[C@@H]54)no3)c(=O)c12,Vd [6]: 2.8 L/kg; pEC50 (Rattus norvegicus): 8.21; inhibition [21]: 63%; fraction unbound [22]: 0.02; half-life [8]: 2.5 h; Vduss [9]: 140 L/kg; pIC50 [10]: 8.09; inhibition [23]: 87%; clearance [11]: 15 mL/min/kg; inhibition [24]: 36%; CLhep predicted [12]: 43 mL/min/kg; fraction unbound [13]: 0.009; inhibition [25]: 30%; Papp A→B [15]: 20.7 ×10⁻⁶ cm/s; bioavailability [17]: 32%
8.54,–,–,2.9,–,Cn1cnc2ncn(Cc3nc([C@H]4[C@@H]5CN(c6cccc(Cl)c6)C[C@@H]54)no3)c(=O)c21,Vd [6]: 2.3 L/kg; pEC50 (Rattus norvegicus): 8.10; inhibition [26]: 64%; fraction unbound [22]: 0.018; half-life [8]: 6.4 h; Vduss [9]: 128 L/kg; pIC50 [10]: 8.10; inhibition [27]: 99%; clearance [11]: 4.5 mL/min/kg; Kinetic_solubility [5]: 97 µM; CLhep predicted [12]: 35 mL/min/kg; fraction unbound [13]: 0.011; Papp A→B [15]: 15.5 ×10⁻⁶ cm/s; bioavailability [17]: 20%; inhibition [28]: 12%; inhibition [29]: 99%
7.00,12 mL/min/kg,35 mL/min/kg,1.9,–,Cn1cnc2ncn(Cc3nc(CCc4ccc(Cl)cc4)no3)c(=O)c21,pIC50 [10]: 7.10
7.85,16 mL/min/kg,44 mL/min/kg,1.3,–,Cn1cnc2ncn(Cc3nn(CCCOc4cccc(Cl)c4)c(=O)o3)c(=O)c21,–
5.34,11 mL/min/kg,34 mL/min/kg,1.3,–,Cn1cnc2ncn(Cc3nn(CCOc4cccc(Cl)c4)c(=O)o3)c(=O)c21,–
5.72,–,–,2.7,54 µM,Cn1cnc2ncn(Cc3nc([C@H]4[C@@H]5C[C@H](c6ccccc6)C[C@@H]54)no3)c(=O)c21,–
7.12,10 mL/min/kg,13 mL/min/kg,2.4,–,O=c1c2cccnc2ncn1Cc1nc([C@H]2[C@@H]3CN(c4cc(Cl)ccn4)C[C@@H]32)no1,–
8.14,6 mL/min/kg,11 mL/min/kg,2.2,–,Cn1cnc2ncn(Cc3nn([C@H]4C[C@H](Oc5cccc(Cl)c5)C4)c(=O)o3)c(=O)c21,–
7.60,–,–,1.8,97 µM,Cn1cnc2ncn(Cc3nc([C@H]4[C@@H]5CN(c6cc(Cl)ccn6)C[C@@H]54)no3)c(=O)c21,Vd [6]: 1.8 L/kg; pEC50 (Rattus norvegicus): 6.66; fraction unbound [22]: 0.087; half-life [8]: 1.8 h; Vduss [9]: 20.7 L/kg; pIC50 [10]: 7.74; clearance [11]: 12 mL/min/kg; CLhep predicted [12]: 36 mL/min/kg; fraction unbound [13]: 0.07; inhibition [30]: 59%; inhibition [31]: 94%; Papp A→B [15]: 17.3 ×10⁻⁶ cm/s; bioavailability [17]: 39%; inhibition [32]: 64%; inhibition [33]: 48%
